pIC50: −log10 of the molar value.
Columns and labels:
T-tropic HIV = experiment: Phenoscreen assay: inhibition of cellular entry of HIV (luciferase-tagged test vector, target host cells); format: cell-based; settings: Human immunodeficiency virus 1, read-out: IC50 value for viral entry inhibition
Experimental: A selected set of compounds are tested for their ability to inhibit the cellular entry of T-tropic HIV. The assay for this inhibition was carried out by Monogram Biosciences, Inc. using their well established Phenoscreen™ assay. Briefly, HIV strains of interest are tagged with a luciferase indicator gene to create an appropriate test vector. The test vector is amplified through transfection and the resulting virus is incubated in the presence of target host cells where intracellular florescence activity then becomes a measure of infection. Amplified virus is exposed to target host cells in the presence of a range of test drug concentrations to determine IC50 measurements of entry inhibition. A modification of this test is further reapplied as a novel drug assay used in partnership with a number of pharmaceutical companies to test the effectiveness of novel entry inhibitors that target specific chemokines. It can used to detect activity against T-tropic, M-tropic, and dual-tropic viruses and Monogram Biosciences has a large bank of over 10,000 different virus strains to ultimately assess the range of applicability of our chemokine modulators. Certain compounds are tested to establish efficacy in a number of viral strains.

[1] = in vivo; cited from earlier work

SMILES | pIC50 (T-tropic HIV) | side effect in clinical study [1]
O=C(NCc1ccccc1)c1ccc(C(=O)NNc2ccccc2)cc1 | ≥ 5.00 | –
O=C(NCc1ccc(C(=O)N(Cc2ccccc2)N2CCOCC2)cc1)c1cccs1 [A, N-(4-(benzyl(morpholino)carbamoyl)benzyl)thiophene-2-carboxamide] | ≥ 5.00 | –
O=C(NNc1ccc(C(F)(F)F)cc1)c1ccc(CNCc2ccccc2)cc1 [AA, 4-((benzylamino)methyl)-N′-(4-(trifluoromethyl)phenyl)benzohydrazide] | ≥ 5.00 | –
N#Cc1ccc(NNC(=O)c2ccc(CNCc3ccccc3)cc2)cc1 [AB, 4-((benzylamino)methyl)-N′-(4-cyanophenyl)benzohydrazide] | ≥ 5.00 | –
O=C(NNc1ccc(F)cc1F)c1ccc(CNCc2ccccc2)cc1 [AF, 4-((benzylamino)methyl)-N1′-(2,4-difluorophenyl)benzohydrazide] | ≥ 5.00 | –
O=C(NNc1ccccc1)c1ccc(CNCc2ccccn2)cc1 [AL, N′-phenyl-4-((pyridin-2-ylmethylamino)methyl)benzohydrazide] | ≥ 5.00 | –
c1cc(CN2CCCNCCNCCCNCC2)ccc1CN1CCCNCCNCCCNCC1 [AMD3100] | – | cardiac-related side effect
O=C(NCc1ccccn1)c1ccc(C(=O)NNc2ccccc2)cc1 [AO, 4-(2-phenylhydrazinecarbonyl)-N-(pyridin-2-ylmethyl)benzamide] | ≥ 5.00 | –
C[C@H](NC(=O)NCc1ccc(C(=O)NNc2ccccc2)cc1)c1cccc2ccccc12 [BE, (S)-4-((3-(1-(naphthalen-1-yl)ethyl)ureido)methyl)-N′-phenylbenzohydrazide] | ≥ 5.00 | –
O=C(NNc1ccccc1)c1ccc(CNCc2ccccc2)cc1 [Z, 4-((benzylamino)methyl)-N′-phenylbenzohydrazide] | ≥ 5.00 | –
